Experimental data from patent US9708314B2, “Heterocyclic amide compound” (NISSAN CHEMICAL INDUSTRIES, LTD., priority 2013, dated 2017).

Legend:
Format in all cases: in vivo
[1] = system: Echinochloa oryzacola Vasing.; experiment: Test Example 1: herbicidal activity, application before weed generation in submerged conditions; conditions: Seventeenth Table; for A: Echinochloa oryzicola Vasing. (herbicidal effect grade): Application herbicide amount 320 g/ha
Method in brief: (§1)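 Submerged pot test: alluvial soil, 4 cm water, seeds sown mixed, 2.5-leaf rice transplanted; emulsion in water applied to surface day of sowing, dose g/ha; greenhouse 25–30° C.; 3 wk; 0–5 rating.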

[2] = system: Monochoria vaginalis; experiment: as above; conditions: Seventeenth Table; for C: Monochoria vaginalis (herbicidal effect grade): Application herbicide amount 320 g/ha
Method in brief: as §1

[3] = system: Scirpus juncoides; experiment: as above; conditions: Seventeenth Table; for B: Scirpus juncoides (herbicidal effect grade): Application herbicide amount 320 g/ha
Method in brief: as §1

[4] = system: transplanted Oryza sativa; experiment: Test Example 1: effect on crop, application before weed generation in submerged conditions; conditions: Seventeenth Table; for a: transplanted Oryza sativa (effect on crop grade): Application herbicide amount 320 g/ha
Method in brief: as §1

[5] = system: Echinochloa oryzacola Vasing.; experiment: Test Example 2: herbicidal activity, application during weed generation in submerged conditions; conditions: Eighteenth Table; application herbicide amount 320 g/ha
Method in brief: (§2)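 Paddy-type pot test: flooded soil, 4 cm depth, greenhouse 25–30 °C. Emulsion formulation diluted in water, applied to water surface at 1–2 leaf stage; rate expressed as g/ha. Read-out at 3 wk, 0–5 score.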

[6] = system: Monochoria vaginalis; experiment: as above; conditions: Eighteenth Table; application herbicide amount 320 g/ha
Method in brief: as §2

[7] = system: Scirpus juncoides; experiment: as above; conditions: Eighteenth Table; application herbicide amount 320 g/ha
Method in brief: as §2

[8] = system: directly sowed Oryza sativa; experiment: Test Example 3: effect on crop by application to foliage (Wagner pot, water depth 0.1-0.5 cm); conditions: Nineteenth Table; application to foliage; application herbicide amount 320 g/ha
Method in brief: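 Seeds were sown in alluvial soil in Wagner pots, grown for 14 days at 25–30 °C, then sprayed uniformly on foliage with the emulsified compound diluted to a given rate per hectare. Injury was graded three weeks after treatment from 0 (≤5%) to 5 (≥90%).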

[9] = application herbicide amount 320 g/ha

In the case of `Cn1nnnc1NC(=O)c1ccc(C(F)(F)F)n2c(S(C)(=O)=O)nnc12` [2-037], the “A: Echinochloa oryzicola Vasing. (herbicidal effect grade)” value [1] is reported as 5 (Herbicidal ratio of 90% or more (almost completely withered)), the “C: Monochoria vaginalis (herbicidal effect grade)” value (shortened to “C: Monochoria vaginalis”) [2] is reported as 5 (Herbicidal ratio of 90% or more (almost completely withered)) and the “B: Scirpus juncoides (herbicidal effect grade)” value (shortened to “B: Scirpus juncoides”) [3] is reported as 5 (Herbicidal ratio of 90% or more (almost completely withered)). The “a: transplanted Oryza sativa (effect on crop grade)” value (from here on “a: transplanted Oryza sativa”) [4] was 4 (Herbicidal ratio of 70% or more and less than 90%), the “A (Echinochloa oryzicola Vasing.) herbicidal ratio grade” value [5] was 5 (Herbicidal ratio of 90% or more (almost completely withered)) and the “C (Monochoria vaginalis) herbicidal ratio grade” value [6] was 5 (Herbicidal ratio of 90% or more (almost completely withered)). For the same compound, the “B (Scirpus juncoides) herbicidal ratio grade” value [7] was 5 (Herbicidal ratio of 90% or more (almost completely withered)) and the “b (effect on crop grade)” value [8] was 5 (Herbicidal ratio of 90% or more (almost completely withered)).
In the case of `C=CCSc1nnc2c(C(=O)Nc3nnnn3C)ccc(C(F)(F)F)n12` [2-102], the “A (Echinochloa oryzicola Vasing.) herbicidal ratio grade” value [1, 9] is reported as 5 (Herbicidal ratio of 90% or more (almost completely withered)), the “C (Monochoria vaginalis) herbicidal ratio grade” value [2, 9] is reported as 4 (Herbicidal ratio of 70% or more and less than 90%) and the “B (Scirpus juncoides) herbicidal ratio grade” value [3, 9] is reported as 5 (Herbicidal ratio of 90% or more (almost completely withered)). For the same compound, the “a (transplanted Oryza sativa) effect on crop grade” value [4, 9] was 1 (Herbicidal ratio of 5% or more and less than 20%), the “A (Echinochloa oryzicola Vasing.) herbicidal ratio grade” value [5] was 4 (Herbicidal ratio of 70% or more and less than 90%) and the “C (Monochoria vaginalis) herbicidal ratio grade” value [6] was 4 (Herbicidal ratio of 70% or more and less than 90%). For the same compound, the “B (Scirpus juncoides) herbicidal ratio grade” value [7] was 4 (Herbicidal ratio of 70% or more and less than 90%) and the “b (effect on crop grade)” value [8] was 1 (Herbicidal ratio of 5% or more and less than 20%).
In the case of `Cn1nnnc1NC(=O)c1ccc(C(F)(F)F)n2c(CS(C)(=O)=O)nnc12` [2-034], the “A: Echinochloa oryzicola Vasing. (herbicidal effect grade)” value [1] is reported as 5 (Herbicidal ratio of 90% or more (almost completely withered)), the “C: Monochoria vaginalis” value [2] is reported as 4 (Herbicidal ratio of 70% or more and less than 90%) and the “B: Scirpus juncoides” value [3] is reported as 4 (Herbicidal ratio of 70% or more and less than 90%). The “a: transplanted Oryza sativa” value [4] was 4 (Herbicidal ratio of 70% or more and less than 90%), the “A (Echinochloa oryzicola Vasing.) herbicidal ratio grade” value [5] was 5 (Herbicidal ratio of 90% or more (almost completely withered)) and the “C (Monochoria vaginalis) herbicidal ratio grade” value [6] was 4 (Herbicidal ratio of 70% or more and less than 90%). For the same compound, the “B (Scirpus juncoides) herbicidal ratio grade” value [7] was 4 (Herbicidal ratio of 70% or more and less than 90%) and the “b (effect on crop grade)” value [8] was 5 (Herbicidal ratio of 90% or more (almost completely withered)).
With `Cn1nnnc1NC(=O)c1ccc(C(F)(F)F)n2cnnc12` [2-001] the “A: Echinochloa oryzicola Vasing. (herbicidal effect grade)” value [1] was 2 (Herbicidal ratio of 20% or more and less than 40%), the “C: Monochoria vaginalis” value [2] was 4 (Herbicidal ratio of 70% or more and less than 90%) and the “B: Scirpus juncoides” value [3] was 3 (Herbicidal ratio of 40% or more and less than 70%). For the same compound, the “a: transplanted Oryza sativa” value [4] was 0 (Herbicidal ratio of 5% or less (almost no effect)), the “A (Echinochloa oryzicola Vasing.) herbicidal ratio grade” value [5] was 2 (Herbicidal ratio of 20% or more and less than 40%) and the “C (Monochoria vaginalis) herbicidal ratio grade” value [6] was 3 (Herbicidal ratio of 40% or more and less than 70%). The “B (Scirpus juncoides) herbicidal ratio grade” value [7] was 2 (Herbicidal ratio of 20% or more and less than 40%) and the “b (effect on crop grade)” value [8] was 1 (Herbicidal ratio of 5% or more and less than 20%).
In the case of `CSC(C)c1nnc2c(C(=O)Nc3nnnn3C)ccc(C(F)(F)F)n12` (stereo not drawn) [2-052], the “A: Echinochloa oryzicola Vasing. (herbicidal effect grade)” value [1] is reported as 5 (Herbicidal ratio of 90% or more (almost completely withered)), the “C: Monochoria vaginalis” value [2] is reported as 5 (Herbicidal ratio of 90% or more (almost completely withered)) and the “B: Scirpus juncoides” value [3] is reported as 5 (Herbicidal ratio of 90% or more (almost completely withered)). The “a: transplanted Oryza sativa” value [4] was 5 (Herbicidal ratio of 90% or more (almost completely withered)), the “A (Echinochloa oryzicola Vasing.) herbicidal ratio grade” value [5] was 5 (Herbicidal ratio of 90% or more (almost completely withered)) and the “C (Monochoria vaginalis) herbicidal ratio grade” value [6] was 4 (Herbicidal ratio of 70% or more and less than 90%). The “B (Scirpus juncoides) herbicidal ratio grade” value [7] was 4 (Herbicidal ratio of 70% or more and less than 90%) and the “b (effect on crop grade)” value [8] was 5 (Herbicidal ratio of 90% or more (almost completely withered)).
`Cn1nnnc1NC(=O)c1ccc(C(F)(F)F)n2c(-c3cc(Cl)cc(Cl)c3)nnc12` [2-064] was tested, and the “A: Echinochloa oryzicola Vasing. (herbicidal effect grade)” value [1] was 5 (Herbicidal ratio of 90% or more (almost completely withered)), the “C: Monochoria vaginalis” value [2] was 2 (Herbicidal ratio of 20% or more and less than 40%) and the “a: transplanted Oryza sativa” value [4] was 3 (Herbicidal ratio of 40% or more and less than 70%). For the same compound, the “A (Echinochloa oryzicola Vasing.) herbicidal ratio grade” value [5] was 3 (Herbicidal ratio of 40% or more and less than 70%), the “C (Monochoria vaginalis) herbicidal ratio grade” value [6] was 3 (Herbicidal ratio of 40% or more and less than 70%) and the “B (Scirpus juncoides) herbicidal ratio grade” value [7] was 4 (Herbicidal ratio of 70% or more and less than 90%). For the same compound, the “b (effect on crop grade)” value [8] was 0 (Herbicidal ratio of 5% or less (almost no effect)).
`CC(C)c1nnc2c(C(=O)Nc3nnnn3Cc3ccc(Cl)cc3)ccc(C(F)(F)F)n12` [2-093] was tested, and the “A: Echinochloa oryzicola Vasing. (herbicidal effect grade)” value [1] was 5 (Herbicidal ratio of 90% or more (almost completely withered)), the “C: Monochoria vaginalis” value [2] was 4 (Herbicidal ratio of 70% or more and less than 90%) and the “B: Scirpus juncoides” value [3] was 5 (Herbicidal ratio of 90% or more (almost completely withered)). For the same compound, the “a: transplanted Oryza sativa” value [4] was 2 (Herbicidal ratio of 20% or more and less than 40%), the “A (Echinochloa oryzicola Vasing.) herbicidal ratio grade” value [5] was 2 (Herbicidal ratio of 20% or more and less than 40%) and the “C (Monochoria vaginalis) herbicidal ratio grade” value [6] was 3 (Herbicidal ratio of 40% or more and less than 70%). For the same compound, the “B (Scirpus juncoides) herbicidal ratio grade” value [7] was 4 (Herbicidal ratio of 70% or more and less than 90%).
For `C#CCN(C)c1nnc2c(C(=O)Nc3nnnn3C)ccc(C(F)(F)F)n12` [2-094], the “A: Echinochloa oryzicola Vasing. (herbicidal effect grade)” value [1] was 5 (Herbicidal ratio of 90% or more (almost completely withered)), the “C: Monochoria vaginalis” value [2] was 5 (Herbicidal ratio of 90% or more (almost completely withered)) and the “B: Scirpus juncoides” value [3] was 5 (Herbicidal ratio of 90% or more (almost completely withered)). For the same compound, the “a: transplanted Oryza sativa” value [4] was 4 (Herbicidal ratio of 70% or more and less than 90%), the “A (Echinochloa oryzicola Vasing.) herbicidal ratio grade” value [5] was 5 (Herbicidal ratio of 90% or more (almost completely withered)) and the “C (Monochoria vaginalis) herbicidal ratio grade” value [6] was 4 (Herbicidal ratio of 70% or more and less than 90%). For the same compound, the “B (Scirpus juncoides) herbicidal ratio grade” value [7] was 5 (Herbicidal ratio of 90% or more (almost completely withered)).
In the case of `COc1cc(OC)cc(-c2nnc3c(C(=O)Nc4nnnn4C)ccc(C(F)(F)F)n23)c1` [2-063], the “A: Echinochloa oryzicola Vasing. (herbicidal effect grade)” value [1] is reported as 5 (Herbicidal ratio of 90% or more (almost completely withered)), the “C: Monochoria vaginalis” value [2] is reported as 5 (Herbicidal ratio of 90% or more (almost completely withered)) and the “a: transplanted Oryza sativa” value [4] is reported as 4 (Herbicidal ratio of 70% or more and less than 90%). The “A (Echinochloa oryzicola Vasing.) herbicidal ratio grade” value [5] was 5 (Herbicidal ratio of 90% or more (almost completely withered)), the “C (Monochoria vaginalis) herbicidal ratio grade” value [6] was 5 (Herbicidal ratio of 90% or more (almost completely withered)) and the “B (Scirpus juncoides) herbicidal ratio grade” value [7] was 4 (Herbicidal ratio of 70% or more and less than 90%). The “b (effect on crop grade)” value [8] was 3 (Herbicidal ratio of 40% or more and less than 70%).
In the case of `C=CCn1nnnc1NC(=O)c1ccc(C(F)(F)F)n2c(C(C)C)nnc12` [2-091], the “A: Echinochloa oryzicola Vasing. (herbicidal effect grade)” value [1] is reported as 5 (Herbicidal ratio of 90% or more (almost completely withered)), the “C: Monochoria vaginalis” value [2] is reported as 5 (Herbicidal ratio of 90% or more (almost completely withered)) and the “B: Scirpus juncoides” value [3] is reported as 5 (Herbicidal ratio of 90% or more (almost completely withered)). The “a: transplanted Oryza sativa” value [4] was 0 (Herbicidal ratio of 5% or less (almost no effect)), the “A (Echinochloa oryzicola Vasing.) herbicidal ratio grade” value [5] was 4 (Herbicidal ratio of 70% or more and less than 90%) and the “C (Monochoria vaginalis) herbicidal ratio grade” value [6] was 4 (Herbicidal ratio of 70% or more and less than 90%). For the same compound, the “B (Scirpus juncoides) herbicidal ratio grade” value [7] was 5 (Herbicidal ratio of 90% or more (almost completely withered)).
